The assay concerns EL4 tumors. Kind of assay: Anti-tumor efficacy of Compound 1 with and without anti-PD-1 in the subcutaneous EL4 murine lymphoma model (Example 2C). The class given is in vivo, Mus musculus. The following applies: for ILS (%) / MST: endpoint tumor volume 2000 mm^3. As for the experimental part: Female C57BL/6 mice were inoculated subcutaneously at the right flank with EL4 cells for tumor development. Five days after tumor inoculation, 48 mice with tumor size ranging from 50-76 mm^3 (average tumor size 65 mm^3) were selected and assigned into 6 groups using stratified randomization with 8 mice per group based upon their tumor volumes. The treatments were started from the day of randomization (defined as D0), Group 1 was treated with Vehicle (Tween 80:Ethanol:Saline—5:5:90 v/v/v), s.c., qd×4, Group 2 was treated with anti-PD-1 10 mg/kg i.p. q4d×4, Group 3 was treated with Compound 1 0.3 mg/kg s.c. q.d.×14, Group 4 was treated with Compound 1 0.3 mg/kg s.c. q.d.×14+anti-PD-1 10 mg/kg i.p. q4d×4, Group 5 was treated with Compound 1 1 mg/kg s.c. q.d.×14, Group 6 was treated with Compound 1 1 mg/kg s.c. q.d.×14+anti-PD-1 10 mg/kg i.p. q4d×4. The tumor sizes were measured three times per week during the treatment. The entire study was terminated on D19 after start of the treatment.
Animal Species: Mus musculus; Strain: […]; Age: 6-8 weeks; Sex: female; Body weight (at treatment start): 17-22 g.
The EL4 tumor cells were maintained in vitro as a monolayer culture in DMEM medium supplemented with 10% heat inactivated horse serum and 100 μg/mL penicillin streptomycin at 37° C. in an atmosphere of 5% CO2 in air. The tumor cells were routinely subcultured twice weekly by trypsin-EDTA treatment. The cells growing to a confluency around 70%-80% were harvested and counted for tumor inoculation. The cultured EL4 were harvested, re-suspended in base medium at a density of […] with viability>90%. Each mouse was inoculated subcutaneously at the right flank with 2×10^5 in 0.1 ml base medium for tumor development.
The treatments were started on day 5 after tumor inoculation when the tumor size reached 50-76 mm^3 (average tumor size 65 mm^3). Each group consisted of 8 tumor bearing mice. The testing article was administrated at the dosing volume indicated to the mice according to the predetermined regimen as shown Table 2C-1. Testing article formulations were prepared according to standard procedures. Details regarding tumor measurements and endpoints, and statistical analysis are provided in EXAMPLE 3.
Tumor sizes were measured three times a week in two dimensions using a caliper, and the volume expressed in mm^3 using the formula: V=0.5 a×b^2 where a and b are the long and short diameters of the tumor, respectively. The tumor sizes were then used for the calculations of both tumor growth inhibition (TGI) and T/C values.
TGI is calculated for each group using the formula: […]
TVTreatment_DayN is the average tumor volume of a treatment group on a given day, TVTreatment_Day0 is the average tumor volume of the treatment group on the first day of treatment, TVVehicle_DayN is the average tumor volume of the vehicle control group on a given day, and TVVehicle_Day0 is the average tumor volume of the vehicle group on the first day of treatment.
The T/C value (in percent) is an indication of antitumor effectiveness, T/C (%)=RTVTreatment/RTVControl×100% (RTVTreatment: the mean RTV of the treatment group; RTVControl: the mean RTV of the vehicle treated group). RTV (relative tumor volume)=TVDayN/TVDay0. TVDayN and TVDay0 is the tumor volume on day N and Day 0 respectively. T/C (%)≤42% is considered as significant antitumor activity and <10% is considered as highly significant antitumor activity by the National Cancer Institute criteria.
Animal survival curve: When an individual animal reached to the termination endpoint (TV>2000 mm^3), the mouse was euthanized. The time from treatment initiation to the termination was deemed as its survival time. Survival curve was plotted by Kaplan-Meier method. Median survival time (MST) was calculated for each group. Increase of life span (ILS) was calculated according to the following formula: […]
ILS (%)>25% is considered as a biologically significant survival benefit. […]

The structures appear in SMILES notation.

For orientation: T/C means the result in the treated group divided by that in the control group, in per cent. As a reminder, the TGI is the reduction of tumour growth relative to the control group. Low values mean a weaker effect on the tumour, high ones a stronger effect on the tumour.

Take `CC(=O)N[C@@H](Cc1c[nH]c2ccccc12)C(=O)N[C@@H](CCC(=O)C=[N+]=[N-])C(=O)OC(C)C` [Compound 1, Isopropyl (S)-2-((S)-2-acetamido-3-(1H-indol-3-yl)propanamido)-6-diazo-5-oxohexanoate]: the “ILS (%)” value worked out at 0% (Compound 1 0.3 mg/kg) and 35.7% (Compound 1 1 mg/kg). Moreover, the “MST” value was 9 days (Compound 1 0.3 mg/kg) and 14 days (Compound 1 1 mg/kg). In addition, the “RTV at day 7” value (Cpd. 1 0.3 mg/kg) came out at 21.9 ± 1.51 and the “RTV at day 7” value (Cpd. 1 1 mg/kg) is given as 11.2 ± 1.25. The “Tumor volume (Mean ± SEM)” value (Day 0, Cpd. 1 0.3 mg/kg) is listed as 65 ± 3 mm^3; the “Tumor volume (Mean ± SEM)” value (Day 0, Cpd. 1 1 mg/kg) amounted to 65 ± 3 mm^3; the “Tumor volume (Mean ± SEM)” value (Day 2, Cpd. 1 0.3 mg/kg) was 245 ± 6 mm^3; the “Tumor volume (Mean ± SEM)” value (Day 2, Cpd. 1 1 mg/kg) is reported as 194 ± 15 mm^3; the “Tumor volume (Mean ± SEM)” value (Day 5, Cpd. 1 0.3 mg/kg) is 763 ± 29 mm^3; the “Tumor volume (Mean ± SEM)” value (Day 5, Cpd. 1 1 mg/kg) was determined as 613 ± 62 mm^3. Also, the “Tumor volume (Mean ± SEM)” value is, setting by setting: (Day 7, Cpd. 1 0.3 mg/kg) 1391 ± 41 mm^3; (Day 7, Cpd. 1 1 mg/kg) 728 ± 96 mm^3. In addition, the T/C runs as follows: (Day 7, Cpd. 1 0.3 mg/kg) 73.86%; (Day 7, Cpd. 1 1 mg/kg) 37.76%. Besides, the TGI (Day 7, Cpd. 1 0.3 mg/kg) amounted to 28.88% and the TGI (Day 7, Cpd. 1 1 mg/kg) worked out at 64.42%.

The values are drawn from patent publication US20220117938A1, “COMBINATON THERAPY WITH A DON PRODRUG AND AN IMMUNE CHECKPOINT INHIBITOR” (DRACEN PHARMACEUTICALS, INC., priority 2019, published 2022).
